Data set [1] can be described thus: Cytotoxicity, HepG2 cells, Resazurin assay. The class given is cell-based. As to conditions: human. (The colour change of resazurin is a common sign of viable cells or microbes.)
A further data set relates to HBV. As to the kind of experiment: anti HBV activity, HepG2.117 inducibly HBV producing cell line (Tet-off), intracellular HBV DNA by realtime PCR. Format: cell-based. As to conditions: Hepatitis B virus, 72 h, HepG2.117 cells, 3 days of treatment.

From US11078193B2 (priority 2014, dated 2021) come the findings set out here.

One may read the CC50 as the concentration that lowers cell viability or growth by half. Low values mean harm at low concentration, high ones better tolerance by the cells. A word on the EC50: it is the concentration that produces a half-maximal response. As to `Cn1cc(S(=O)(=O)N[C@H]2CCOC2)c(Cl)c1C(=O)Nc1ccnc(Cl)c1` [Compound 91, 3-chloro-N-(2-chloro-4-pyridyl)-1-methyl-4-[[(3S)-tetrahydrofuran-3-yl]sulfamoyl]pyrrole-2-carboxamide], the CC50 at 4 days in data set [1] was more than 25000 nM. In the data set on HBV, the EC50 was found to be 200 nM.
In the case of `C[C@@H](NS(=O)(=O)c1cn(C)c(C(=O)Nc2ccc(F)c(Cl)n2)c1Cl)C(F)(F)F` [Compound 75, 3-chloro-N-(6-chloro-5-fluoro-2-pyridyl)-1-methyl-4-[[(1R)-2,2,2-trifluoro-1-methyl-ethyl]sulfamoyl]pyrrole-2-carboxamide], in data set [1], the CC50 at 4 days was more than 25000 nM. This compound also registered an EC50 in the data set with HBV of 60 nM.
The like results for `Cn1cc(S(=O)(=O)NC2(C(F)(F)F)CCC2)c(F)c1C(=O)Nc1ccnc(Cl)c1F` [Compound 120, N-(2-chloro-3-fluoro-4-pyridyl)-3-fluoro-1-methyl-4-[[1-(trifluoromethyl)cyclobutyl]sulfamoyl]pyrrole-2-carboxamide] were, in that order, more than 25000 nM and 5 nM.
The like results for `Cn1cc(S(=O)(=O)NC2(CO)COC2)c(Cl)c1C(=O)Nc1ccnc(Cl)c1` [Compound 92] were, in that order, more than 25000 nM and 440 nM.
The matching figures for `Cn1cc(S(=O)(=O)NC2(C(F)(F)F)CCC2)c(F)c1C(=O)Nc1cc(Cl)nc(C#N)c1` [Compound 121, N-(2-chloro-6-cyano-4-pyridyl)-3-fluoro-1-methyl-4-[[1-(trifluoromethyl)cyclobutyl]sulfamoyl]pyrrole-2-carboxamide]: more than 25000 nM and 40 nM.
In data set [1], `Cn1cc(S(=O)(=O)NC2(C)CC(F)(F)C2)c(F)c1C(=O)Nc1ccnc(F)c1` [Compound 133, 4-[(3,3-difluoro-1-methyl-cyclobutyl)sulfamoyl]-3-fluoro-N-(2-fluoro-4-pyridyl)-1-methyl-pyrrole-2-carboxamide] gave a CC50 at 4 days of more than 25000 nM. Further, the midpoint of the response in the data set with HBV, the EC50, lay at 50 nM.
The like results for `C[C@@H](NS(=O)(=O)c1cn(C)c(C(=O)Nc2ccnc(F)c2F)c1Cl)C(F)(F)F` [Compound 138, 3-chloro-N-(2,3-difluoro-4-pyridyl)-1-methyl-4-[[(1R)-2,2,2-trifluoro-1-methyl-ethyl]sulfamoyl]pyrrole-2-carboxamide] were, in that order, more than 25000 nM and 90 nM.
The matching figures for `Cc1cc(NC(=O)c2c(F)c(S(=O)(=O)N[C@H](C)C(C)(F)F)cn2C)cc(Br)n1` [Compound 157, N-(2-bromo-6-methyl-4-pyridyl)-4-[[(1R)-2,2-difluoro-1-methyl-propyl]sulfamoyl]-3-fluoro-1-methyl-pyrrole-2-carboxamide]: more than 25000 nM and 90 nM.
The matching figures for `C[C@@H](NS(=O)(=O)c1cn(C)c(C(=O)Nc2nc(F)c(F)cc2F)c1Cl)C(F)(F)F` [Compound 184, 3-chloro-1-methyl-4-[[(1R)-2,2,2-trifluoro-1-methyl-ethyl]sulfamoyl]-N-(3,5,6-trifluoro-2-pyridyl)pyrrole-2-carboxamide]: more than 25000 nM and 1200 nM.
With `Cn1cc(S(=O)(=O)NC2(C)CC(F)(F)C2)c(F)c1C(=O)Nc1ccnc(C(F)(F)F)c1` [Compound 55, 4-[(3,3-difluoro-1-methyl-cyclobutyl)sulfamoyl]-3-fluoro-1-methyl-N-[2-(trifluoromethyl)-4-pyridyl]pyrrole-2-carboxamide], in data set [1], the CC50 at 4 days is more than 25000 nM. Further, the EC50 in the data set with HBV was determined as 70 nM.
The like results for `Cn1cc(S(=O)(=O)NC2(C(F)(F)F)CCC2)c(F)c1C(=O)Nc1ccnc(C#N)c1F` [Compound 167, N-(2-cyano-3-fluoro-4-pyridyl)-3-fluoro-1-methyl-4-[[1-(trifluoromethyl)cyclobutyl]sulfamoyl]pyrrole-2-carboxamide] were, in that order, more than 25000 nM and 5 nM.
The like results for `C[C@@H](NS(=O)(=O)c1cn(C)c(C(=O)Nc2ccnc(C(F)(F)F)c2F)c1Cl)C(F)(F)F` [Compound 56, 3-chloro-N-[3-fluoro-2-(trifluoromethyl)-4-pyridyl]-1-methyl-4-[[(1R)-2,2,2-trifluoro-1-methyl-ethyl]sulfamoyl]pyrrole-2-carboxamide] were, in that order, more than 25000 nM and 50 nM.
As for `Cn1cc(S(=O)(=O)NC2(C(F)(F)F)CCC2)c(F)c1C(=O)Nc1ccnc(C(F)F)c1F` [Compound 165, N-[2-(difluoromethyl)-3-fluoro-4-pyridyl]-3-fluoro-1-methyl-4-[[1-(trifluoromethyl)cyclobutyl]sulfamoyl]pyrrole-2-carboxamide], in data set [1], the CC50 at 4 days was more than 25000 nM. Further, the EC50 in the data set on HBV was found to be 3 nM.
The like results for `C[C@@H](NS(=O)(=O)c1cn(C)c(C(=O)Nc2ccc(F)c(Br)n2)c1Cl)C(F)(F)F` [Compound 76, N-(6-bromo-5-fluoro-2-pyridyl)-3-chloro-1-methyl-4-[[(1R)-2,2,2-trifluoro-1-methyl-ethyl]sulfamoyl]pyrrole-2-carboxamide] were, in that order, more than 25000 nM and 50 nM.
The like results for `C[C@@H](NS(=O)(=O)c1cn(C)c(C(=O)Nc2c(F)cnc(F)c2F)c1Cl)C(F)(F)F` [Compound 44, 3-chloro-1-methyl-4-[[(1R)-2,2,2-trifluoro-1-methyl-ethyl]sulfamoyl]-N-(2,3,5-trifluoro-4-pyridyl)pyrrole-2-carboxamide] were, in that order, more than 25000 nM and 640 nM.
The matching figures for `CC(C)NS(=O)(=O)c1cn(C)c(C(=O)Nc2ccnc(Cl)c2)c1F` [Compound 79, N-(2-chloro-4-pyridyl)-3-fluoro-4-(isopropylsulfamoyl)-1-methyl-pyrrole-2-carboxamide]: more than 25000 nM and 150 nM.
In data set [1], `Cc1cc(NC(=O)c2c(F)c(S(=O)(=O)NC3(C)CC(F)(F)C3)cn2C)cc(Cl)n1` [Compound 130, N-(2-chloro-6-methyl-4-pyridyl)-4-[(3,3-difluoro-1-methyl-cyclobutyl)sulfamoyl]-3-fluoro-1-methyl-pyrrole-2-carboxamide] displayed a CC50 at 4 days of more than 25000 nM. The compound also returned an EC50 in the data set on HBV of 60 nM.
The matching figures for `C[C@@H](NS(=O)(=O)c1cn(C)c(C(=O)Nc2cc(F)ncc2F)c1Cl)C(F)(F)F` [Compound 140, 3-chloro-N-(2,5-difluoro-4-pyridyl)-1-methyl-4-[[(1R)-2,2,2-trifluoro-1-methyl-ethyl]sulfamoyl]pyrrole-2-carboxamide]: more than 25000 nM and 200 nM.
With `C[C@@H](NS(=O)(=O)c1cn(C)c(C(=O)Nc2ccc(F)nc2)c1Cl)C(F)(F)F` [Compound 50, 3-chloro-N-(6-fluoro-3-pyridyl)-1-methyl-4-[[(1R)-2,2,2-trifluoro-1-methyl-ethyl]sulfamoyl]pyrrole-2-carboxamide], the CC50 at 4 days in data set [1] is more than 25000 nM. Besides, the EC50 in the data set with HBV was found to be 200 nM.
The compound `C[C@@H](NS(=O)(=O)c1cc(C(=O)Nc2ccnc(F)c2)n(C)c1)C(C)(F)F` [Compound 102, 4-[[(1R)-2,2-difluoro-1-methyl-propyl]sulfamoyl]-N-(2-fluoro-4-pyridyl)-1-methyl-pyrrole-2-carboxamide] returned a CC50 at 4 days in data set [1] of more than 25000 nM. The response with HBV was half-maximal at 180 nM (EC50).
